Where two headings read alike, the source gives them in different places.
Key:
hTLR8 = target: T1, hTLR8 (Homo sapiens, UniProt Q9NR97); assay: agonistic activity on hTLR8, HEK-Blue hTLR cells, SEAP reporter (QUANTI-Blue); type: cell-based; conditions: for EC50: SEAP reporter, OD650, cultured 1 day; for TLR 8 selectivity TLR 7/TLR 8: ratio of TLR 7 EC50 to TLR 8 EC50
T1 construct: expressed in transfected cells; host or cells: HEK-Blue hTLR cells
T1 sequence (Q9NR97 27-1041): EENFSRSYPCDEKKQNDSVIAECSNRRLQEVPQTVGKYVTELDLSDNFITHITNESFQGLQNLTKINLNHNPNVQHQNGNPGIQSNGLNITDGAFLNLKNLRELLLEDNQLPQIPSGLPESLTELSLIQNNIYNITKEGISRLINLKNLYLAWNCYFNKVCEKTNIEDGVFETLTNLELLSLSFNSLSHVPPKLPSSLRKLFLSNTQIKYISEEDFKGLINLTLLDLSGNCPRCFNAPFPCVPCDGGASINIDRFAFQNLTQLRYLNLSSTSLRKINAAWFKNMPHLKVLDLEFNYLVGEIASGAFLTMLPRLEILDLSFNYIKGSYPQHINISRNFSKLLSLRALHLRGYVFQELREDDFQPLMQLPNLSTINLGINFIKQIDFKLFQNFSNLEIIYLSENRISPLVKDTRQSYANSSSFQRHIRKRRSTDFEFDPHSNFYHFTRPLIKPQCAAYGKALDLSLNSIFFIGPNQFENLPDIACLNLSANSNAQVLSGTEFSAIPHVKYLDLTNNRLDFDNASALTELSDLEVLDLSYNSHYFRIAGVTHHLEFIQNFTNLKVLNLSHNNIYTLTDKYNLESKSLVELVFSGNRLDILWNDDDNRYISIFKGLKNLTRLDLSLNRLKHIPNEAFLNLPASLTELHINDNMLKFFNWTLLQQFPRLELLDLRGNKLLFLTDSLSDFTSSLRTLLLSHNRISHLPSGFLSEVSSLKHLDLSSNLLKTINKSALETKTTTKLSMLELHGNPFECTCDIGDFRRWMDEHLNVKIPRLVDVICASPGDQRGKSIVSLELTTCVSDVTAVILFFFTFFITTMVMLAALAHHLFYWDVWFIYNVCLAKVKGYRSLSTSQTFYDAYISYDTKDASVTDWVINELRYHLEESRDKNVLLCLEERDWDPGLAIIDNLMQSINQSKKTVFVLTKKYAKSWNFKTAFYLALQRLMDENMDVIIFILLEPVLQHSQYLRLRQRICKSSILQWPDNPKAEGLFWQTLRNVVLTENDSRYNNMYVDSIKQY
Experimental: (§1) Experiments on the agonistic activity of TLR7 and TLR8 by the compounds in vitro
(§2) The compound was diluted with 1:3 series with DMSO for 9 concentration points, duplicated wells, and added to 96-well plate with Echo.
(§3) The HEK-Blue™ hTLR cells were suspended in the culture medium and then seeded into a 96-well plate containing the compound at a density of 50,000 cells/well. Cells were cultured at 5% CO2 and 37° C. for 1 day. The final concentration of DMSO in the cell culture medium was 0.5%.
(§4) 20 uL cell culture supernatant was taken, according to the QUANTI-Blue instructions, the reporter gene SEAP in the supernatant was detected, and the OD650 signal value was read with a microplate reader to calculate the agonist activity of the compound on the hTLR7 and hTLR8.
(§5) The EC50 and CC50 values of the compound were calculated by GraphPad Prism software, and the fitting curve was plotted.

[1] = cytotoxicity, cell viability by CellTiter-Glo; type: cell-based, human; conditions: human, HEK-Blue hTLR cells, cultured 1 day
Experimental: as §2, §3
(§6) According to the CellTiter-Glo instructions, the cell viability was measured, and the Luminescence signal value was read by the microplate reader, which was used to calculate the cytotoxicity of the compound.
as §5

hTLR7 = target: T2, hTLR7 (Homo sapiens, UniProt Q9NYK1); assay: agonistic activity on hTLR7, HEK-Blue hTLR cells, SEAP reporter (QUANTI-Blue); type: cell-based; conditions: for TLR 7 selectivity TLR 8/TLR 7: ratio of TLR 8 EC50 to TLR 7 EC50
T2 construct: expressed in transfected cells; host or cells: HEK-Blue hTLR cells
T2 sequence (Q9NYK1 27-1049): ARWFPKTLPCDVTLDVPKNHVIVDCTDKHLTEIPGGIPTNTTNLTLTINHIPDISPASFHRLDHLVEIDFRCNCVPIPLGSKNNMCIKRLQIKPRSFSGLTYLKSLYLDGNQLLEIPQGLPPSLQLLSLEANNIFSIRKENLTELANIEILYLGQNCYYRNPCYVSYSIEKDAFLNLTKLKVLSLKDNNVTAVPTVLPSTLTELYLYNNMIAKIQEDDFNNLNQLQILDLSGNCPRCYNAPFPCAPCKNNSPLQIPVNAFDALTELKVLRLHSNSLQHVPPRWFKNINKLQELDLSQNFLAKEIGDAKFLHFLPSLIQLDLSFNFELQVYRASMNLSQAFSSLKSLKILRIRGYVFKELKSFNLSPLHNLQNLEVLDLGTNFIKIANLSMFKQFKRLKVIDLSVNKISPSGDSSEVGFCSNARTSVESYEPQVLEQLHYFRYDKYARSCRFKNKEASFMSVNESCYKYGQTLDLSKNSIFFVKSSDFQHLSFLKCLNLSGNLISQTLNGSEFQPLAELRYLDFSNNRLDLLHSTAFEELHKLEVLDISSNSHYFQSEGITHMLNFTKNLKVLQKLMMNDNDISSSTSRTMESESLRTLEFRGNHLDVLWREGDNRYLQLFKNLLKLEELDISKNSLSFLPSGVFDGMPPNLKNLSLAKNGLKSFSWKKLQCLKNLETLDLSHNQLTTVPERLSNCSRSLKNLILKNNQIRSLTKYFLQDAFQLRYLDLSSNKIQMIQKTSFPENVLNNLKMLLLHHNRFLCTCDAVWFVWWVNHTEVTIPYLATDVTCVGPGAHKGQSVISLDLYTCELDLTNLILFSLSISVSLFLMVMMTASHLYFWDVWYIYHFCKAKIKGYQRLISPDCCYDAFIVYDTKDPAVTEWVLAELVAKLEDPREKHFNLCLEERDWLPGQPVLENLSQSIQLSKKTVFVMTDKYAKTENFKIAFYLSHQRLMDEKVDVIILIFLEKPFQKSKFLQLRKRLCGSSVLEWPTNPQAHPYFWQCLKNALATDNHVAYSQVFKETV
Experimental: as §1, §2, §3, §4, §5

HEK-Blue™ hTLR cells = assay: cytotoxicity, cell viability by CellTiter-Glo; type: cell-based, human; conditions: cultured 1 day
Experimental: as §2, §3, §6, §5

[2] = HEK-Blue hTLR cells, read-out: TLR 8 EC50
[3] = HEK-Blue hTLR cells, SEAP reporter, OD650, cultured 1 day, read-out: TLR 7 EC50
[4] = TLR 8 EC50, HEK-Blue hTLR cells

SMILES | EC50 (hTLR8; [2]) | CC50 at 1 day [1] | EC50 (hTLR7; [3]) | TLR 7 selectivity TLR 8/TLR 7 (hTLR7) | EC50 (hTLR8; [4]) | TLR 8 selectivity TLR 7/TLR 8 (hTLR8) | EC50 (hTLR7) | CC50 (HEK-Blue™ hTLR cells)
CCOCc1nc2c(N)nc3ccccc3c2n1C[C@@H](C)O (single isomer, unassigned) [Example 1B] | 3.6 µM | > 30 µM | 1.27 µM | 2.8 |  |  |  | 
CCOCc1nc2c(N)nc3ccccc3c2n1C[C@@H](C)O[P@@](=O)(N[C@@H](C)C(=O)OC(C)C)Oc1ccccc1 (single isomer, unassigned) [Example 2A] |  | > 30 µM |  |  | 0.881 µM | 3.2 | 2.8 µM | 
CCOCc1nc2c(N)nc3ccccc3c2n1C[C@H](C)O[P@@](=O)(N[C@@H](C)C(=O)OC(C)C)Oc1ccccc1 (single isomer, unassigned) [Example 2B] |  | > 30 µM |  |  | 0.077 µM | 39.4 | 3.03 µM | 
CCOCc1nc2c(N)nc3ccccc3c2n1C[C@@H](C)O[P@](=O)(N[C@@H](C)C(=O)OC(C)C)Oc1ccccc1 (single isomer, unassigned) [Example 3A] | 9.08 µM | > 30 µM | > 30 µM |  |  | >3.3 |  | 
CCOCc1nc2c(N)nc3ccccc3c2n1C[C@H](C)O[P@](=O)(N[C@@H](C)C(=O)OC(C)C)Oc1ccccc1 (single isomer, unassigned) [Example 3B] | 1.86 µM | > 30 µM | 3.61 µM |  |  | 1.9 |  | 
CCOCc1nc2c(N)nc3ccccc3c2n1C[C@@H](C)O[P@@](=O)(N[C@@H](C)C(=O)OC(C)C)Oc1cccc2ccccc12 (single isomer, unassigned) [Example 5A] | 0.0092 µM | 17.9 µM | > 10 µM |  |  | >1086 |  | 
CCOCc1nc2c(N)nc3ccccc3c2n1C[C@@H](C)OP(=O)(N[C@@H](C)C(=O)OC(C)C)Oc1cccc2ccccc12 (single isomer, unassigned) [Example 5B] | 0.017 µM |  |  |  |  |  |  | > 30 µM
CCOCc1nc2c(N)nc3ccccc3c2n1C[C@@H](C)O[P@@](=O)(N[C@@H](C)C(=O)OC(C)C)Oc1ccc2ccccc2c1 (single isomer, unassigned) [Example 6A] | 0.0056 µM | > 30 µM | 7.29 µM |  |  | 1301 |  | 
CCOCc1nc2c(N)nc3ccccc3c2n1C[C@@H](C)O[P@@](=O)(N[C@@H](C)C(=O)OC(C)C)Oc1ccc(C)cc1 (single isomer, unassigned) [Example 9A] | 0.0079 µM | > 30 µM | 9.5 µM |  |  | 1202 |  | 
CCOCc1nc2c(N)nc3ccccc3c2n1C[C@@H](C)O[P@@](=O)(N[C@@H](C)C(=O)OC(C)C)Oc1cccc(Cl)c1 (single isomer, unassigned) [Example 11A] | 0.0091 µM | > 30 µM | 5.83 µM |  |  | 640 |  | 
CCOCc1nc2c(N)nc3ccccc3c2n1C[C@@H](C)O[P@@](=O)(N[C@@H](C)C(=O)OC(C)C)Oc1ccc(Cl)cc1 (single isomer, unassigned) [Example 12A] | 0.0035 µM | > 30 µM | 6.07 µM |  |  | 1735 |  | 
CCOCc1nc2c(N)nc3ccccc3c2n1C[C@@H](C)O[P@@](=O)(N[C@@H](C)C(=O)OC(C)(C)C)Oc1ccccc1 (single isomer, unassigned) [Example 14A] | 0.366 µM | > 30 µM | 15.8 µM |  |  | 43 |  | 
CCOCc1nc2c(N)nc3ccccc3c2n1C[C@@H](C)O[P@@](=O)(N[C@@H](C)C(=O)OCc1ccccc1)Oc1ccccc1 (single isomer, unassigned) [Example 16A] | 0.0354 µM | > 30 µM | 5.83 µM |  |  | 165 |  | 
CCOCc1nc2c(N)nc3ccccc3c2n1C[C@@H](C)O[P@@](=O)(N[C@@H](C)C(=O)OC(C)(C)C)Oc1ccc(C)cc1 (single isomer, unassigned) [Example 17A] | 0.133 µM | > 30 µM | > 30 µM |  |  | >226 |  | 
CCOCc1nc2c(N)nc3ccccc3c2n1C[C@@H](C)O[P@@](=O)(N[C@@H](C)C(=O)OC(C)(C)C)Oc1ccc(OC)cc1 (single isomer, unassigned) [Example 18A] | 0.203 µM | > 30 µM | > 30 µM |  |  | >148 |  | 
CCOCc1nc2c(N)nc3ccccc3c2n1C[C@@H](C)O[P@@](=O)(N[C@@H](C)C(=O)OC(C)(C)C)Oc1ccc(Cl)cc1 (single isomer, unassigned) [Example 19A] | 0.0585 µM | > 30 µM | > 30 µM |  |  | >513 |  | 
CCOCc1nc2c(N)nc3ccccc3c2n1C[C@H](C)O [Example 1A] | 1.08 µM | > 30 µM | 0.44 µM | 2.5 |  |  |  | 
CCOCc1nc2c(N)nc3ccccc3c2n1CC(C)O (stereo not shown) [Example 1] | 1.59 µM | > 30 µM | 0.666 µM | 2.4 |  |  |  | 

Reference: US20230008368A1, “IMIDAZOQUINOLINE SUBSTITUTED PHOSPHORIC ESTER AGONIST, AND PREPARATION THEREFOR AND APPLICATION THEREOF” (SUZHOU ZELGEN BIOPHARMACEUTICALS CO., LTD., priority 2019, published 2023)
